One assay deals with T1, C-Raf kinase (Homo sapiens, UniProt P04049).
T1 construct: purchased Upstate Biotechnology
Briefly: C-Raf kinase assay ([33P] incorporation into MEK1(K97R)). The class given is biochemical. As to conditions: class symbols; 8 μM ATP; read-out: IC50 against C-Raf kinase. The method in brief: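 Recombinant C-Raf (2 ng) phosphorylated MEK1(K97R) (500 ng) with 8 μM ATP plus [33P]ATP in Tris pH 7.5 buffer for 30 min at 30 °C. Reactions were stopped with phosphoric acid, filtered and counted by scintillation. IC50 values came from 3-fold serial dilutions run in duplicate.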

In the next assay the target is T2, VEGFR2 kinase (Homo sapiens, UniProt P35968).
T2 construct: VEGFR2 kinase domain alone, Millipore; purchased Millipore
T2 sequence (P35968 834-1162 limits assumed): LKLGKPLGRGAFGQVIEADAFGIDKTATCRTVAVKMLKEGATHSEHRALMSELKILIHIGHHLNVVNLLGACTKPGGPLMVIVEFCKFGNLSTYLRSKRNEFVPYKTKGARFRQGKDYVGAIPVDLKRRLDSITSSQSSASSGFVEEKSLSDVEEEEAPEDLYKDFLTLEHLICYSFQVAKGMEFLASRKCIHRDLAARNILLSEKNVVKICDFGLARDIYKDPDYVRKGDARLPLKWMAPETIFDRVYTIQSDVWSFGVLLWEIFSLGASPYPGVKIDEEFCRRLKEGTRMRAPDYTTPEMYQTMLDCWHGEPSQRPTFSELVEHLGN
As to the kind of experiment: VEGFR2 radiometric kinase assay. In kind it is biochemical. The settings on record: given as bound; 100 μM ATP; read-out: Inhibition activity, IC50 VEGFR2. The essentials: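 Recombinant human VEGFR2 kinase domain (6.25 ng) phosphorylating poly(Glu-Tyr) 4:1 with 100 μM ATP plus [33P]ATP, in MOPS buffer pH 7.0, for 30 min at 30° C. Phosphoric-acid-stopped reactions were filter-captured and counted by scintillation for inhibition and IC50.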

The next assay deals with T3, B-Raf kinase (Homo sapiens, UniProt P15056).
T3 construct: purchased Upstate Biotechnology
T3 sequence (P15056 whole entry): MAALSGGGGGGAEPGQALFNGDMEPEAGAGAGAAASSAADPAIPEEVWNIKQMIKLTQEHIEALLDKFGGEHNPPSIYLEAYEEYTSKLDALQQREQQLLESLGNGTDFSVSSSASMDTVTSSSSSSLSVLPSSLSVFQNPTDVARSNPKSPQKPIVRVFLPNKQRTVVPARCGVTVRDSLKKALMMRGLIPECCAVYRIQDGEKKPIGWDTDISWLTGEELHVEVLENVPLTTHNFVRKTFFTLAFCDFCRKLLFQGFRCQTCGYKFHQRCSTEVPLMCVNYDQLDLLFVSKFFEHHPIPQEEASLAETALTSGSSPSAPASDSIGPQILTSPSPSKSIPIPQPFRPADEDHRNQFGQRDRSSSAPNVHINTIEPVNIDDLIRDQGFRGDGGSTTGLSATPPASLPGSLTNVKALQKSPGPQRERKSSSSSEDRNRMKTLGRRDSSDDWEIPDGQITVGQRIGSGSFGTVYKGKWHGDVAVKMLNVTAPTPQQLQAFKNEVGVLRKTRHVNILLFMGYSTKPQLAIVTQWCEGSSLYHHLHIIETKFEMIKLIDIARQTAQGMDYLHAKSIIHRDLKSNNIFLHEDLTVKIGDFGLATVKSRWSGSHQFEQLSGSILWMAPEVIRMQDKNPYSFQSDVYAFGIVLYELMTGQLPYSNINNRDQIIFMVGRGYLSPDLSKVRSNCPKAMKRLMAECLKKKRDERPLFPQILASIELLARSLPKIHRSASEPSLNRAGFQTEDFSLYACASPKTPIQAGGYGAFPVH
As to the kind of experiment: B-Raf kinase assay ([33P] incorporation into MEK1(K97R)). In kind it is biochemical. The settings on record: class symbols; 8 μM ATP; read-out: IC50 against B-Raf kinase. The essentials:
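Recombinant B-Raf (5 ng) phosphorylating 500 ng MEK1(K97R) with 8 μM ATP plus [33P]ATP, pH 7.5 Tris buffer, 30 min at 30 °C. Radiolabel incorporation counted by filter-binding scintillation; IC50 from 3-fold serial dilutions run in duplicate.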

The target in a further assay is T4, EGFR kinase (Homo sapiens, UniProt P00533).
T4 construct: EGFR kinase domain alone, Millipore; purchased Millipore
T4 sequence (P00533 712-979 limits assumed): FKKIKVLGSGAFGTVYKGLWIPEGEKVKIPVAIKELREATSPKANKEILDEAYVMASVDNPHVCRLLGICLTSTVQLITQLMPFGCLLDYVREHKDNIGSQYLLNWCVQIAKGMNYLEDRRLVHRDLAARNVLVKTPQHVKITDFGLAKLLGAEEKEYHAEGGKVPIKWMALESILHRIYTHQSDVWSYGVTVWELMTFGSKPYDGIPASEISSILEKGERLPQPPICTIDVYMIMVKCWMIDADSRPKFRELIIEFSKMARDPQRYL
Briefly: EGFR radiometric kinase assay. The class given is biochemical. The settings on record: 100 μM ATP, read-out: Inhibition activity, IC50 EGFR. The essentials:
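Recombinant EGFR kinase domain (25 ng) with poly(Glu-Tyr) substrate in pH 7.0 MOPS buffer with 10 mM MnCl2, 100 μM ATP plus [^33P]ATP. Reaction 30 min at 30 °C, stopped with phosphoric acid; filter-bound radioactivity counted by scintillation.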

In a further assay the target is T5, B-Raf(V600E) kinase (Homo sapiens, UniProt P15056, V600E).
T5 construct: purchased Upstate Biotechnology
T5 sequence (P15056 whole entry V600E): as the sequence (P15056 whole entry) above, with V600E counted along it
Briefly: B-Raf(V600E) kinase assay ([33P] incorporation into MEK1(K97R)). In kind it is biochemical. As to conditions: class symbols; 8 μM ATP; read-out: IC50 against B-Raf(V600E) kinase. The method in brief:
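Recombinant B-Raf(V600E) (5 ng) phosphorylating MEK1(K97R) (500 ng) with 8 μM ATP plus [33P]ATP in Tris/HCl pH 7.5 buffer, 30 min at 30 °C. Acid-stopped reactions were filter-captured and counted by scintillation; IC50 from 3-fold serial dilutions run in duplicate.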

The test system of assay [1] is A375 melanoma cells and COLO205 colon cancer cells. Briefly: Cell proliferation assay (CellTiter-96). In kind it is cell-based. As to conditions: Homo sapiens; A375 or COLO205, 72 hours treatment; read-out: Cytotoxicity IC50 for A375 or COLO205. The essentials:
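B-Raf(V600E) mutant A375 and COLO205 cells in DMEM with 10% FCS, plated 24 h, then given varying compound concentrations for 72 h at 37 °C. Viability by CellTiter-96 Aqueous One reagent (4 h), absorbance at 490 nm.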

Like-named read-outs stand apart in the source and are kept apart here. Bounds are passed on as bounds.

T1 sequence (P04049 whole entry): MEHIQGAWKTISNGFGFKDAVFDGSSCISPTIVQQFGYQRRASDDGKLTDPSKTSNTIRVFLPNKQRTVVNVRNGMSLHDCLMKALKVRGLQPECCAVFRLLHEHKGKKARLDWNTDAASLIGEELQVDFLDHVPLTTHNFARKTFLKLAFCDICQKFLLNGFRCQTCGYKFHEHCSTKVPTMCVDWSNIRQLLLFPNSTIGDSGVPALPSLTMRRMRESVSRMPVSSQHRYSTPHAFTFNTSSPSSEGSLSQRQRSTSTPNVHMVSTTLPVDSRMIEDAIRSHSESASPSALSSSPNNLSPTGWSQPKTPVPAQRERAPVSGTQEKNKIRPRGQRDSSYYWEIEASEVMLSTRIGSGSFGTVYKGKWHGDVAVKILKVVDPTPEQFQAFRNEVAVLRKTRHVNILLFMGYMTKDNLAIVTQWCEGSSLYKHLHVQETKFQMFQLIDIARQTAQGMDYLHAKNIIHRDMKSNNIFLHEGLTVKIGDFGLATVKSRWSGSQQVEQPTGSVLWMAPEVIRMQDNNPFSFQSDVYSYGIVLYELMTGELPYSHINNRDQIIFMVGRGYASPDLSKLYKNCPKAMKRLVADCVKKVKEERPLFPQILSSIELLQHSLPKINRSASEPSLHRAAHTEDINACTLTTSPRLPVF

`CCCS(=O)(=O)Nc1ccc(F)c(Nc2ccnc3ccc(-c4cccnc4F)cc23)c1F` [compound 13, N-(2,4-difluoro-3-(6-(2-fluoropyridin-3-yl)-quinolin-4-ylamino)phenyl)propane-1-sulfonamide]: the IC50 was less than 300 nM at C-Raf kinase; greater than 3000 nM on VEGFR2 kinase; less than 300 nM at B-Raf kinase; greater than 3000 nM on EGFR kinase (given as bound); less than 300 nM on B-Raf(V600E) kinase; less than 2000 nM in assay [1].

Regarding `CCCS(=O)(=O)Nc1ccc(F)c(Nc2ncnc3ccc(-c4ccnc(F)c4)cc23)c1F` [compound 24, N-(2,4-difluoro-3-(6-(2-fluoropyridin-4-yl)quinazolin-4-ylamino)phenyl)propane-1-sulfonamide], the IC50 on C-Raf kinase is 300 to 1000 nM; at VEGFR2 kinase it was greater than 3000 nM; on B-Raf kinase, less than 300 nM; at EGFR kinase (class symbols), 1000 to 3000 nM; on B-Raf(V600E) kinase it was less than 300 nM; in assay [1], less than 2000 nM.

In the case of `CCCS(=O)(=O)Nc1ccc(F)c(Nc2ncnc3ccc(-c4ccc(=O)[nH]c4)cc23)c1F` [compound 32, N-(2,4-difluoro-3-(6-(6-oxo-1,6-dihydropyridin-3-yl)quinazolin-4-ylamino)phenyl)propane-1-sulfonamide], the IC50 on C-Raf kinase is 300 to 1000 nM; at VEGFR2 kinase it was greater than 3000 nM; at B-Raf kinase it was less than 300 nM; at EGFR kinase (given as bound) it was greater than 3000 nM; at B-Raf(V600E) kinase, less than 300 nM; in assay [1], less than 2000 nM.

On to `CCCS(=O)(=O)Nc1ccc(F)c(Nc2ncnc3cc(OCCOC)c(-c4cccnc4F)cc23)c1F` [compound 29, N-(2,4-difluoro-3-(6-(2-fluoropyridin-3-yl)-7-(2-methoxyethoxy)quinazolin-4-ylamino)phenyl)propane-1-sulfonamide], for which the IC50 at C-Raf kinase was less than 300 nM; at VEGFR2 kinase, greater than 3000 nM; at B-Raf kinase, less than 300 nM; on EGFR kinase (class symbols), 300 to 1000 nM; at B-Raf(V600E) kinase, less than 300 nM; in assay [1], less than 2000 nM.

`CCCS(=O)(=O)Nc1ccc(F)c(Nc2ncnc3ccc(-c4ccc(N5CCOCC5)nc4)cc23)c1F` [compound 2, N-(2,4-difluoro-3-(6-(6-morpholinopyridin-3-yl)quinazolin-4-ylamino)phenyl)propane-1-sulfonamide]: the concentration for half-maximal inhibition (IC50) on C-Raf kinase was less than 300 nM; on VEGFR2 kinase, greater than 3000 nM; on B-Raf kinase, less than 300 nM; on EGFR kinase (class symbols), 1000 to 3000 nM; on B-Raf(V600E) kinase, less than 300 nM; in assay [1] it was less than 2000 nM.

(Values after patent US9321762B2, “Quinazoline compounds, method for preparing the same and use thereof” (DEVELOPMENT CENTER FOR BIOTECHNOLOGY, priority 2013, dated 2016).)
